Assay results: patent US11208412B2 (DAEGU-GYEONGBUK MEDICAL INNOVATION FOUNDATION, priority 2017, dated 2021)

What was measured:
Experiment in all cases: Kinase selectivity, DiscoverX scanMAX Kinase assay panel (% control)
Type in all cases: binding
[1] = biological target: T1, kinases of the scanMAX Kinase assay panel (Homo sapiens, UniProt P00533, L858R/T790M); details: EGFR(L858R, T790M); 1 uM
T1 construct: purchased DiscoverX Co. (contract measurement) scanMAX Kinase assay panel
Outline: (§1)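 Compounds tested at 1 uM against the scanMAX kinase panel. Signal expressed as % control = (compound − positive control)/(DMSO negative control − positive control) × 100, where positive control = 0% and DMSO = 100%; below 35% counted as activity on that kinase.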

[2] = biological target: T2, kinases of the scanMAX Kinase assay panel (Homo sapiens, UniProt P29323); details: EPHB2; 1 uM
T2 construct: purchased DiscoverX Co. (contract measurement) scanMAX Kinase assay panel
T2 sequence (P29323 19-1055): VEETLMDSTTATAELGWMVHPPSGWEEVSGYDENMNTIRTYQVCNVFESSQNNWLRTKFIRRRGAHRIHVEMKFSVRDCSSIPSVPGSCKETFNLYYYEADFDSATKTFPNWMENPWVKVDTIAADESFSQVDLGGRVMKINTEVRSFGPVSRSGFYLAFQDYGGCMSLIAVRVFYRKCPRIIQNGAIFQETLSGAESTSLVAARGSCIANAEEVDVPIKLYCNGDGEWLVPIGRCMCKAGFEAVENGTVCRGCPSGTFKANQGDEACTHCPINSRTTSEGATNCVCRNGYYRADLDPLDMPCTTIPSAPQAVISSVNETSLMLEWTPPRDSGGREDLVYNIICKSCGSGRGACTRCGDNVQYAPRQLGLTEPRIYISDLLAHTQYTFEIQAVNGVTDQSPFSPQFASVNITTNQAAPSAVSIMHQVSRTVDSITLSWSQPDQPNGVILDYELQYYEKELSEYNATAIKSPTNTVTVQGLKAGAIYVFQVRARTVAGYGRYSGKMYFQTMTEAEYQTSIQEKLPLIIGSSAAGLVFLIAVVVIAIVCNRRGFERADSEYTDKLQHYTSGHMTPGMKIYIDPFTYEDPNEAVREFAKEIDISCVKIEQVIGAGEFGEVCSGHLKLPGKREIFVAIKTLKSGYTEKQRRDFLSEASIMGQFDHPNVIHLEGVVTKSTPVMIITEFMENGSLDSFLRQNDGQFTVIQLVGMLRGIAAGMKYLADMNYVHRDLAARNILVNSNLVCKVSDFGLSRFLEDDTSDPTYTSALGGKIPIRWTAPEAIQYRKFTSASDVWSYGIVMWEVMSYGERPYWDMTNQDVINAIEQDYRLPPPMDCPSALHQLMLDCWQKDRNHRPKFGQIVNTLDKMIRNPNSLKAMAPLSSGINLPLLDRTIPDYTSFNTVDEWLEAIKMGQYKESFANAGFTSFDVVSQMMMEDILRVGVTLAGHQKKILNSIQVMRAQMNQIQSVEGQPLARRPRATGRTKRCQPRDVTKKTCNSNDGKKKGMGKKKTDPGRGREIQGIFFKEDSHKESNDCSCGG
Outline: as §1

[3] = biological target: T3, kinases of the scanMAX Kinase assay panel (Homo sapiens, UniProt P36888, R834Q); details: FLT3(R834Q); 1 uM
T3 construct: purchased DiscoverX Co. (contract measurement) scanMAX Kinase assay panel
T3 sequence (P36888 27-993 R834Q): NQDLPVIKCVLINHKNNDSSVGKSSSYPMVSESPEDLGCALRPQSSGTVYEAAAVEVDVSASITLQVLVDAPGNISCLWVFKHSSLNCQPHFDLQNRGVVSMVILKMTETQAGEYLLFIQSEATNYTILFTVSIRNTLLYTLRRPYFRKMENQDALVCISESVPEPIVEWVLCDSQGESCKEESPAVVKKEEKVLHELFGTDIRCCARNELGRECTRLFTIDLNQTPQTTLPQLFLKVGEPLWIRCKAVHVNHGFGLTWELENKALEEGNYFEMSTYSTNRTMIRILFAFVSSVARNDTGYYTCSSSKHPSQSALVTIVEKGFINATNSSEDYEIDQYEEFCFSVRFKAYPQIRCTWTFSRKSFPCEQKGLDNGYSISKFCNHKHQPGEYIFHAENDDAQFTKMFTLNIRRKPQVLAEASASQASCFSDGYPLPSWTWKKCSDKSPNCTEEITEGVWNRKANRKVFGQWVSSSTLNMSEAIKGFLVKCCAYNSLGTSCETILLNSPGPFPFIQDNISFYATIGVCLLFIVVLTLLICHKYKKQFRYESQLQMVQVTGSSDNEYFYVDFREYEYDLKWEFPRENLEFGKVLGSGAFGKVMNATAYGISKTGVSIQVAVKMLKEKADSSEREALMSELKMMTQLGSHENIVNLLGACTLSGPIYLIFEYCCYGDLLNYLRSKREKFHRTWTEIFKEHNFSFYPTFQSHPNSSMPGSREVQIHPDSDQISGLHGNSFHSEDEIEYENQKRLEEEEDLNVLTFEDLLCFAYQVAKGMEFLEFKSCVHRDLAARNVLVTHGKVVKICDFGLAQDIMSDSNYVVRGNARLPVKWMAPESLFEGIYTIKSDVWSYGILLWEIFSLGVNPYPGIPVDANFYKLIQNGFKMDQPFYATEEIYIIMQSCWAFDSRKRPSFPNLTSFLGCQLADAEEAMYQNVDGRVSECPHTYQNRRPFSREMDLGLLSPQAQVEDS
Outline: as §1

[4] = biological target: T4, kinases of the scanMAX Kinase assay panel (Homo sapiens, UniProt Q96GD4); details: AURKB; 1 uM
T4 construct: purchased DiscoverX Co. (contract measurement) scanMAX Kinase assay panel
T4 sequence (Q96GD4 whole entry): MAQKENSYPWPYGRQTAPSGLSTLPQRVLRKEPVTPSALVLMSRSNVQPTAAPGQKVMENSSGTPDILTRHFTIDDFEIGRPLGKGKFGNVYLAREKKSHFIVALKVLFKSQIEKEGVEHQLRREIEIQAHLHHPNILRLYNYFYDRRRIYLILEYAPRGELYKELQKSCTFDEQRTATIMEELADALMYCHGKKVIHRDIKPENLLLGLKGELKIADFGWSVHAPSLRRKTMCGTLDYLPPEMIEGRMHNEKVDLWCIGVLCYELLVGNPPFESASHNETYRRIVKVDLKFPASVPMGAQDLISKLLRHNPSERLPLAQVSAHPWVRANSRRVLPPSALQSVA
Outline: as §1

[5] = biological target: T5, kinases of the scanMAX Kinase assay panel (Homo sapiens, UniProt Q14289); details: PYK2; 1 uM
T5 construct: purchased DiscoverX Co. (contract measurement) scanMAX Kinase assay panel
T5 sequence (Q14289 whole entry): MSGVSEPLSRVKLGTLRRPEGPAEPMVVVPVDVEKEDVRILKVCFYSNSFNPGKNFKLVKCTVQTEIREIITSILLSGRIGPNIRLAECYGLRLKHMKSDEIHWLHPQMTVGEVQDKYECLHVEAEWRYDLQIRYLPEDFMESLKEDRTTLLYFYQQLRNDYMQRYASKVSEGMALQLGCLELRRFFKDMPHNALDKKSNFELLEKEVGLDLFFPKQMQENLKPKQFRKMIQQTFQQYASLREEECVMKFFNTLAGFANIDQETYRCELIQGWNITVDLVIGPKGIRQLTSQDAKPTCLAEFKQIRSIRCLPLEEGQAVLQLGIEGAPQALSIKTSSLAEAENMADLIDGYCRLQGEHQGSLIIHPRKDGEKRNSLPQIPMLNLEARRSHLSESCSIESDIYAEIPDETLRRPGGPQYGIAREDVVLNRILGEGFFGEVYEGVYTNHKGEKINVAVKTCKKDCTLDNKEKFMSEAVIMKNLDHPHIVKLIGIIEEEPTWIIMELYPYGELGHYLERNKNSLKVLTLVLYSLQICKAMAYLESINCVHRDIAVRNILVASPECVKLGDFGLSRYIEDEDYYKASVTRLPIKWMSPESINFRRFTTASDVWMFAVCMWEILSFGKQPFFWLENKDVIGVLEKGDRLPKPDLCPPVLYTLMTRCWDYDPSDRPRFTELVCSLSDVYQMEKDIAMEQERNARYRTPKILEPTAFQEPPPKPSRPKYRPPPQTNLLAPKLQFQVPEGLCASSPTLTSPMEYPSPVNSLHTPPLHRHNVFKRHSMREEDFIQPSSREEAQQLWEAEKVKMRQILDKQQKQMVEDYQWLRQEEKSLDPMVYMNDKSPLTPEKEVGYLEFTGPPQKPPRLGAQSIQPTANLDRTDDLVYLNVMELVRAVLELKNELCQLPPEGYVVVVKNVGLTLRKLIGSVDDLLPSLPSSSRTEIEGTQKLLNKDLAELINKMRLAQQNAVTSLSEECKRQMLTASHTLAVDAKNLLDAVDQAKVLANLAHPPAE
Outline: as §1

[6] = biological target: T6, kinases of the scanMAX Kinase assay panel (Homo sapiens, UniProt O00506); details: kinase YSK1; 1 uM in DMSO
T6 construct: purchased DiscoverX Co. (contract measurement) scanMAX Kinase assay panel
T6 sequence (O00506 whole entry): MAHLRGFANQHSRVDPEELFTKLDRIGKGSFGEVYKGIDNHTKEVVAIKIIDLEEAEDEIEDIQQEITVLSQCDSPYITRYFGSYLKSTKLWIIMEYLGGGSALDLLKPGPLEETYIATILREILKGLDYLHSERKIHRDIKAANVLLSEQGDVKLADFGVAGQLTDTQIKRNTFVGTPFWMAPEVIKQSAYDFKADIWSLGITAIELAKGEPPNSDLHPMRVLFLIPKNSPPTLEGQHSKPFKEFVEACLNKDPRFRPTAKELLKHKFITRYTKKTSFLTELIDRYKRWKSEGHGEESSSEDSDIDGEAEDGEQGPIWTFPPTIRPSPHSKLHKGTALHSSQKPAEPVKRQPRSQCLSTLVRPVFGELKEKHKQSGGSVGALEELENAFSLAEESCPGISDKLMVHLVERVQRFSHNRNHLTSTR
Outline: as §1

[7] = biological target: T7, kinases of the scanMAX Kinase assay panel (Homo sapiens, UniProt O96017); details: CHEK2; 1 uM
T7 construct: purchased DiscoverX Co. (contract measurement) scanMAX Kinase assay panel
T7 sequence (O96017 whole entry): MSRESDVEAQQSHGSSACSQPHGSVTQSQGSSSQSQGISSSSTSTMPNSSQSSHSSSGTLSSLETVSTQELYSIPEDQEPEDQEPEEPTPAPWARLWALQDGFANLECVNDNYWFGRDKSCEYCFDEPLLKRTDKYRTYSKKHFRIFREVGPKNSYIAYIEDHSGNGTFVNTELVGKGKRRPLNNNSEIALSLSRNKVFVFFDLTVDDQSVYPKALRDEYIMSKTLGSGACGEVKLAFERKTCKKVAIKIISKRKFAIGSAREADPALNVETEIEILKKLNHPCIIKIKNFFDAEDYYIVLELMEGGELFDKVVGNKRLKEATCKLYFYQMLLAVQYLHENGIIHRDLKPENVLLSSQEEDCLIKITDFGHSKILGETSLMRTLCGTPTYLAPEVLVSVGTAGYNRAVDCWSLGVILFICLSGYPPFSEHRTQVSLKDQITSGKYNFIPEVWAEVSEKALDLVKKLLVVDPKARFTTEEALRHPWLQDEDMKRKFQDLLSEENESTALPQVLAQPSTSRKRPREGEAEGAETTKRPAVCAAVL
Outline: as §1

[8] = biological target: T8, kinases of the scanMAX Kinase assay panel (Homo sapiens, UniProt O75116); details: kinase ROCK2; 1 uM in DMSO
T8 construct: purchased DiscoverX Co. (contract measurement) scanMAX Kinase assay panel
T8 sequence (O75116 whole entry): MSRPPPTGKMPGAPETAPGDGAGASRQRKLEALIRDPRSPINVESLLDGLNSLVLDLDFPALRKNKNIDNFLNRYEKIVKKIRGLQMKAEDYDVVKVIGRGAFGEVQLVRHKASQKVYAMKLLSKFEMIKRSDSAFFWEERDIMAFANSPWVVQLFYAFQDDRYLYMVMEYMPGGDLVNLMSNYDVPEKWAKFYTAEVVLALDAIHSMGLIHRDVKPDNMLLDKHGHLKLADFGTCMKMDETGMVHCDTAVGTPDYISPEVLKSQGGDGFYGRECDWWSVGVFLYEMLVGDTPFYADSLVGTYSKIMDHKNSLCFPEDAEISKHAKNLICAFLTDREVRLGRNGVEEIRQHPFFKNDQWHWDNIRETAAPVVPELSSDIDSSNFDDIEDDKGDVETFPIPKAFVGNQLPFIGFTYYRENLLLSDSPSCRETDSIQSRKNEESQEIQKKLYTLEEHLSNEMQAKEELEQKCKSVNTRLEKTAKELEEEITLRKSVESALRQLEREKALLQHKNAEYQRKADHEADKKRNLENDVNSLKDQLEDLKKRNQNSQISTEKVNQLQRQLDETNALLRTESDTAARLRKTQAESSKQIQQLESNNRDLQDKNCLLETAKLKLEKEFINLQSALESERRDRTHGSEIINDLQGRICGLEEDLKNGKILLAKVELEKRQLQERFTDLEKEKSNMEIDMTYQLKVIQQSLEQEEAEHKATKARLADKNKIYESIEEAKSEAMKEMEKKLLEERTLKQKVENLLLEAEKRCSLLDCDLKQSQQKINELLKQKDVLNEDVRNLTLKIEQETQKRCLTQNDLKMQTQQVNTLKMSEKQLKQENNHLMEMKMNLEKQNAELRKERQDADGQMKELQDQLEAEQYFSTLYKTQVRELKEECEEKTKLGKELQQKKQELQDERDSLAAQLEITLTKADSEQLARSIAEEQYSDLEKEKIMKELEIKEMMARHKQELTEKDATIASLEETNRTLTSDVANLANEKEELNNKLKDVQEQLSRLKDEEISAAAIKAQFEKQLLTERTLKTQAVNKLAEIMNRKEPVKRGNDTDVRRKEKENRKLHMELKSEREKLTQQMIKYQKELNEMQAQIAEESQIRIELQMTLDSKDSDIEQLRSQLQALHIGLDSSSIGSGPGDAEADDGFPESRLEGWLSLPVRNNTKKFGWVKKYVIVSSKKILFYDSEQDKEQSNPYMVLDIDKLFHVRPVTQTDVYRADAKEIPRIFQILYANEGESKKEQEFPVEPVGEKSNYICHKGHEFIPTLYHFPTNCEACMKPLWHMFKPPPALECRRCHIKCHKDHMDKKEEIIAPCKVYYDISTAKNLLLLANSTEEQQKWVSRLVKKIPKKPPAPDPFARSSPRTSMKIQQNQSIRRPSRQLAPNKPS
Outline: as §1

T1 sequence (P00533 25-1210 T790M/L858R): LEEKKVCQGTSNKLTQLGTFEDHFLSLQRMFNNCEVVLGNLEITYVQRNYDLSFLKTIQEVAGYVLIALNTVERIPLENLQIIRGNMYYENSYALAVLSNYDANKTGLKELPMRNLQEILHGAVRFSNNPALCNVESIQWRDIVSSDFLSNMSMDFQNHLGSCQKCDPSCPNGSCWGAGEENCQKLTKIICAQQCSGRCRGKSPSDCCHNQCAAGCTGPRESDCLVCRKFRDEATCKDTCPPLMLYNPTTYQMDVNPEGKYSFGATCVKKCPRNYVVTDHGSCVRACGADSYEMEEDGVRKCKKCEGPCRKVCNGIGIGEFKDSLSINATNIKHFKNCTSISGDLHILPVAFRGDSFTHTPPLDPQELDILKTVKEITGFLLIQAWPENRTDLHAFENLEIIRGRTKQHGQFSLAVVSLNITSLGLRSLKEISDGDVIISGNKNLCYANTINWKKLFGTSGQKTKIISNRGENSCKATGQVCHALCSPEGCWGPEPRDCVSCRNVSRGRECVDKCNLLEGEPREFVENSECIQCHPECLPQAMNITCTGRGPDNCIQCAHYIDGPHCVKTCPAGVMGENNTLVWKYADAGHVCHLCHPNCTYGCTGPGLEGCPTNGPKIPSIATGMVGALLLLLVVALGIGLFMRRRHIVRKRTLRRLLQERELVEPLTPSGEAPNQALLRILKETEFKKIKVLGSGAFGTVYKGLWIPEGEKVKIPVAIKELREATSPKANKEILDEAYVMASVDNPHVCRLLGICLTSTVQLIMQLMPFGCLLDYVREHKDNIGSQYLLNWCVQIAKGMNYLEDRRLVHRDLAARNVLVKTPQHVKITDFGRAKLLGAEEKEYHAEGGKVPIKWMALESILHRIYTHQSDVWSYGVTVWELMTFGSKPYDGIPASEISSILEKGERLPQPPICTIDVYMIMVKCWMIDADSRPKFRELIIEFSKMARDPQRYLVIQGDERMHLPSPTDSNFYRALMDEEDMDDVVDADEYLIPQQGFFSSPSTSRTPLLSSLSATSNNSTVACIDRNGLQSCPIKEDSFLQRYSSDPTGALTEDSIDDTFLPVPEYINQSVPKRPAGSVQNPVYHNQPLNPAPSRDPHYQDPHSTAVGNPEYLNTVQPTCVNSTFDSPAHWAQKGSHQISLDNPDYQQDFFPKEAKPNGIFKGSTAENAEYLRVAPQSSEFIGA

Compound	remaining binding at 1 µM [1] [%]	remaining binding at 1 µM [2] [%]	remaining binding at 1 µM [3] [%]	remaining binding at 1 µM [4] [%]	remaining binding at 1 µM [5] [%]	remaining binding at 1 µM [6] [%]	remaining binding at 1 µM [7] [%]	remaining binding at 1 µM [8] [%]
CC1(Nc2nc(Nc3cnn([C@H]4CCN(C5COC5)C[C@@H]4F)c3Cl)nc3[nH]cc(C#N)c23)CC1 [Example 52, 2-((5-chloro-1-((3S,4S)-3-fluoro-1-(oxetane-3-yl)piperidine-4-yl)-1H-pyrazole-4-yl)amino)((1-methylcyclopropyl)amino)-7H-pyrrolo[2,3-d]pyrimidine-5-carbonitrile]	2.3	70	7.8	14	1.2	28	0	23
CNc1nc(Nc2ccc(C(=O)N3CCOCC3)cc2OC)nc2[nH]cc(C#N)c12 [Example 1, 2-((2-methoxy-4-(morpholine-4-carbonyl)phenyl)amino)-4-(methylamino)-7H-pyrrolo[2,3-d]pyrimidine-5-carbonitrile]	54	99	65	73	25	97	7.7	56
CCNc1nc(Nc2ccc(C(=O)N3CCC(N4CCOCC4)CC3)cc2OC)nc2[nH]cc(C(F)(F)F)c12 [Example 104, (4-((4-(ethylamino)-5-(trifluoromethyl)-7H-pyrrolo[2,3-d]pyrimidine-2-yl)amino)-3-methoxyphenyl)(4-morpholinopiperidine-1-yl)methanone]	55	91	100	90	2.8	81	12	100
